Data as given in the NIST ThermoML archive (doi:10.1016/j.fluid.2013.06.031).

Settings: Liquid, Closed cell (Static) method

CC(F)(F)CC(F)(F)F [1,1,1,3,3-pentafluorobutane]
Settings | vapor or sublimation pressure [kPa]
332.79 K | 194.9
333.18 K | 197.1
342.65 K | 261.5
347.94 K | 303.9
352.87 K | 348.7
357.77 K | 401.1
363.03 K | 459.2
367.94 K | 519.8
372.87 K | 586.1
378.04 K | 662.3
382.95 K | 741.4
387.88 K | 828.9
393.02 K | 927.2
398.06 K | 1036.4
402.92 K | 1146
408.07 K | 1271.5
413.09 K | 1403.8
418 K | 1542.4
423.13 K | 1698.6
428.15 K | 1862.7
433.05 K | 2034.5
438.03 K | 2225.4
442.99 K | 2425.5
447.89 K | 2637.1
